Columns and labels:
[1] = test system: Rutgers variety tomato plant seedlings; assay: 2021 Greenhouse Tomato Trial; format: in vivo
Text: The base formulation used in greenhouse trials was an aqueous solution of L-theanine (20% by weight). The base formulation was further diluted with water as detailed for each trial. Rutgers variety tomato plant seedlings (n=6/treatment) were planted in commercial potting soil and then were transplanted to 3 gallon pots. L-theanine treatment was applied at the equivalent of 1 pint in 100 gallons of water (125 ppm) and sprayed till runoff. Two treatment applications were made to the plants approximately 14 days apart.

[2] = test system: Mustard plants; assay: 2021 Greenhouse Mustard Trial (soil application); format: in vivo
Experimental: The base formulation used in greenhouse trials was an aqueous solution of L-theanine (20% by weight). The base formulation was further diluted with water as detailed for each trial. Mustard seeds (n=28/treatment) were planted in commercial potting soil in 1-gallon pots. Approximately 14 days after seedling emergence, an aqueous L-theanine solution was mixed into water at a rate of 0.2 mL per 1000 mL water. The resulting solution was applied to the soil of the pots at a rate of 50 mL per plant. Plants were grown for an additional 14 days then harvested.

[3] = foliar spray 125 ppm till runoff, two applications ~14 days apart
[4] = vs untreated check, 125 ppm foliar, two applications
[5] = 0.2 mL per 1000 mL water, 50 mL per plant, harvested 14 days later

Compound: CCNC(=O)CC[C@H](N)C(=O)O [L-theanine]
- Basal Diameter [1, 3]: 6.75 a mm
- Fruit (count) [1, 3]: 8.25 a count
- Leaf (count) [1, 3]: 5 a count
- Plant Height [1, 3]: 21.25 a in
- increase in basal diameter [1, 4]: 1.1 mm
- increase in basal diameter, percent [1, 4]: 19.5%
- increase in fruit count [1, 4]: 3.75
- increase in fruit count, percent [1, 4]: 83.3%
- increase in plant height [1, 4]: 2.5 in
- increase in plant height, percent [1, 4]: 13.3%
- Plant Biomass [2, 5]: 22.19 a g
- Root Length [2, 5]: 545.5 a cm
- Root Tips (count) [2, 5]: 3178.7 a count
- increase in plant biomass ([2]; above the untreated check): 2.8 g
- increase in plant biomass, percent ([2]; above the untreated check): 14.5%
- increase in root length ([2]; above the untreated check): 120.9 cm
- increase in root length, percent ([2]; above the untreated check): 28.5%
- increase in root tips ([2]; above the untreated check): 887
- increase in root tips, percent ([2]; above the untreated check): 38.7%

— US20230172203A1, “PLANT METABOLISM PROMOTING COMPOSITIONS AND METHODS OF USE” (Panoptic Ag Solutions LLC, priority 2021, published 2023)
